Values joined by “and” are separate entries in the source; they are usually repeats but may differ in a detail not shown here. Equal values may be shown once.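 Tested at 5 concentrations; 48 h exposure; 96-well plates; endpoints linearly interpolated, else capped at highest concentration. GI50 marks 50% less growth. At the TGI there is no net growth.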
Experiments:
Experiment in all cases: NCI anticancer screen, dose series, 48 h
SN12C renal = system: SN12C renal
RPMI-8226 leukemia = system: RPMI-8226 leukemia
MALME-3M melanoma = system: MALME-3M melanoma
HOP-62 NSCLC = system: HOP-62 NSCLC
DU-145 prostate = system: DU-145 prostate
SF-539 CNS = system: SF-539 CNS
OVCAR-5 ovarian = system: OVCAR-5 ovarian
HCT-15 colon = system: HCT-15 colon
IGROV1 ovarian = system: IGROV1 ovarian
MDA-MB-435 = system: MDA-MB-435
OVCAR-8 ovarian = system: OVCAR-8 ovarian
SK-MEL-28 melanoma = system: SK-MEL-28 melanoma
SW-620 colon = system: SW-620 colon
CAKI-1 renal = system: CAKI-1 renal
HL-60(TB) leukemia = system: HL-60(TB) leukemia
UO-31 renal = system: UO-31 renal
SR leukemia = system: SR leukemia
NCI-H460 lung = system: NCI-H460 lung
MOLT-4 leukemia = system: MOLT-4 leukemia
BT-549 breast = system: BT-549 breast
UACC-62 melanoma = system: UACC-62 melanoma
SK-MEL-5 melanoma = system: SK-MEL-5 melanoma
HCC-2998 colon = system: HCC-2998 colon
HS 578T breast = system: HS 578T breast
SK-OV-3 ovarian = system: SK-OV-3 ovarian
TK-10 renal = system: TK-10 renal
OVCAR-4 ovarian = system: OVCAR-4 ovarian
COLO 205 colon = system: COLO 205 colon
KM12 colon = system: KM12 colon
SF-295 CNS = system: SF-295 CNS
U251 CNS = system: U251 CNS
HOP-92 NSCLC = system: HOP-92 NSCLC
SNB-19 CNS = system: SNB-19 CNS
UACC-257 melanoma = system: UACC-257 melanoma
PC-3 prostate = system: PC-3 prostate
M14 melanoma = system: M14 melanoma
MCF7 breast = system: MCF7 breast
RXF 393 renal = system: RXF 393 renal
LOX IMVI melanoma = system: LOX IMVI melanoma
HT29 colon = system: HT29 colon
A549 NSCLC = system: A549 NSCLC
MDA-N = system: MDA-N
EKVX NSCLC = system: EKVX NSCLC
NCI-H522 lung = system: NCI-H522 lung
HCT-116 colon = system: HCT-116 colon
K-562 leukemia = system: K-562 leukemia
NCI-H226 lung = system: NCI-H226 lung
NCI/ADR-RES ovarian = system: NCI/ADR-RES ovarian
MDA-MB-231 breast = system: MDA-MB-231 breast
SF-268 CNS = system: SF-268 CNS
SK-MEL-2 melanoma = system: SK-MEL-2 melanoma
SNB-75 CNS = system: SNB-75 CNS
NCI-H23 lung = system: NCI-H23 lung
CCRF-CEM leukemia = system: CCRF-CEM leukemia
786-0 renal = system: 786-0 renal
OVCAR-3 ovarian = system: OVCAR-3 ovarian
T-47D breast = system: T-47D breast
A498 renal = system: A498 renal
ACHN renal = system: ACHN renal
HOP-18 NSCLC = system: HOP-18 NSCLC
SNB-78 CNS = system: SNB-78 CNS
LXFL 529 NSCLC = system: LXFL 529 NSCLC
DMS 114 small cell lung = system: DMS 114 small cell lung
DMS 273 small cell lung = system: DMS 273 small cell lung
KM20L2 colon = system: KM20L2 colon
DLD-1 colon = system: DLD-1 colon
M19-MEL melanoma = system: M19-MEL melanoma

O=c1cc(N2CCOCC2)oc2c(-c3ccccc3)cccc12
GI50 (SN12C renal): 2.93 µM
TGI (SN12C renal): > 100 µM
GI50 (RPMI-8226 leukemia): 5.1 µM
TGI (RPMI-8226 leukemia): > 100 µM and 18.3 µM
GI50 (MALME-3M melanoma): 4.46 µM
TGI (MALME-3M melanoma): > 41.4 µM and 5.6 µM
GI50 (HOP-62 NSCLC): 5.41 µM
TGI (HOP-62 NSCLC): > 100 µM
GI50 (DU-145 prostate): 6.73 µM
TGI (DU-145 prostate): > 100 µM
GI50 (SF-539 CNS): 5.57 µM
TGI (SF-539 CNS): 31.6 µM and 29.8 µM
GI50 (OVCAR-5 ovarian): 5.17 µM
TGI (OVCAR-5 ovarian): > 100 µM and 63.8 µM
GI50 (HCT-15 colon): 4.98 µM
TGI (HCT-15 colon): > 100 µM and 48.7 µM
GI50 (IGROV1 ovarian): 3.65 µM
TGI (IGROV1 ovarian): > 34.4 µM and 12.3 µM
GI50 (MDA-MB-435): 4.23 µM
TGI (MDA-MB-435): 31.1 µM and 37.2 µM
TGI (OVCAR-8 ovarian): > 80.1 µM and 29.1 µM
GI50 (SK-MEL-28 melanoma): 6.57 µM
TGI (SK-MEL-28 melanoma): > 100 µM
GI50 (SW-620 colon): 15.5 µM
TGI (SW-620 colon): > 100 µM
TGI (CAKI-1 renal): 28.9 µM and 9.16 µM
GI50 (HL-60(TB) leukemia): 3.38 µM
TGI (HL-60(TB) leukemia): 38.2 µM and > 100 µM
GI50 (UO-31 renal): 1.39 µM
TGI (SR leukemia): > 60 µM and 46.6 µM
GI50 (NCI-H460 lung): 6.13 µM
TGI (NCI-H460 lung): > 100 µM
GI50 (MOLT-4 leukemia): 5.46 µM
TGI (MOLT-4 leukemia): > 100 µM and 92.8 µM
GI50 (BT-549 breast): 1.79 µM
TGI (BT-549 breast): > 19.8 µM and 76.2 µM
GI50 (UACC-62 melanoma): 3.19 µM
TGI (UACC-62 melanoma): 18.8 µM and 21.9 µM
GI50 (SK-MEL-5 melanoma): 9.35 µM
TGI (SK-MEL-5 melanoma): 22 µM
GI50 (HCC-2998 colon): 5.61 µM
TGI (HCC-2998 colon): 46.9 µM
GI50 (HS 578T breast): 3.16 µM
TGI (HS 578T breast): > 30.6 µM and 11.4 µM
GI50 (SK-OV-3 ovarian): 6.92 µM
TGI (SK-OV-3 ovarian): 62.4 µM and 60.9 µM
GI50 (TK-10 renal): 4.39 µM
TGI (TK-10 renal): 40.3 µM and > 100 µM
GI50 (OVCAR-4 ovarian): 3.5 µM
TGI (OVCAR-4 ovarian): > 61.9 µM and 75.5 µM
TGI (COLO 205 colon): 36.7 µM and 30.1 µM
GI50 (KM12 colon): 10.6 µM
TGI (KM12 colon): 44.9 µM and 28.8 µM
GI50 (SF-295 CNS): 2.61 µM
TGI (SF-295 CNS): 27.8 µM and 44.7 µM
GI50 (U251 CNS): 11.1 µM
TGI (U251 CNS): > 100 µM
GI50 (HOP-92 NSCLC): 3.74 µM
TGI (HOP-92 NSCLC): > 100 µM and 78.5 µM
TGI (SNB-19 CNS): > 96.2 µM and 78.6 µM
GI50 (UACC-257 melanoma): 9.06 µM
TGI (UACC-257 melanoma): 69.2 µM and 60.8 µM
GI50 (PC-3 prostate): 2.96 µM
TGI (PC-3 prostate): > 100 µM
GI50 (M14 melanoma): 5.38 µM
TGI (M14 melanoma): > 38.5 µM and 56 µM
TGI (MCF7 breast): > 57 µM and 16.1 µM
TGI (RXF 393 renal): 13.4 µM and 13.6 µM
GI50 (LOX IMVI melanoma): 4.34 µM
TGI (LOX IMVI melanoma): > 68.3 µM and 18.4 µM
GI50 (HT29 colon): 5.27 µM
TGI (HT29 colon): 70.6 µM and 43.8 µM
GI50 (A549 NSCLC): 6 µM
TGI (A549 NSCLC): > 72.8 µM and 36.7 µM
TGI (MDA-N): 50.3 µM
GI50 (EKVX NSCLC): 5.22 µM
TGI (EKVX NSCLC): > 71 µM and 23.2 µM
GI50 (NCI-H522 lung): 4.96 µM
TGI (NCI-H522 lung): 23.2 µM and 19.3 µM
GI50 (HCT-116 colon): 9.87 µM
TGI (HCT-116 colon): > 100 µM and 46.1 µM
TGI (K-562 leukemia): > 100 µM and 79.7 µM
TGI (NCI-H226 lung): 50 µM and 50.6 µM
GI50 (NCI/ADR-RES ovarian): 6.35 µM
TGI (NCI/ADR-RES ovarian): 85.2 µM and 24.3 µM
GI50 (MDA-MB-231 breast): 5.85 µM
TGI (MDA-MB-231 breast): 97.3 µM and 19.6 µM
GI50 (SF-268 CNS): 3.59 µM
TGI (SF-268 CNS): 53 µM and 14.2 µM
GI50 (SK-MEL-2 melanoma): 12.1 µM
TGI (SK-MEL-2 melanoma): 38 µM and 36.9 µM
GI50 (SNB-75 CNS): 1.91 µM
TGI (SNB-75 CNS): 14.6 µM and 5.97 µM
GI50 (NCI-H23 lung): 9.08 µM
TGI (NCI-H23 lung): > 100 µM
GI50 (CCRF-CEM leukemia): 8.59 µM
TGI (CCRF-CEM leukemia): > 100 µM
GI50 (786-0 renal): 3.13 µM
TGI (786-0 renal): > 37.9 µM and 46.7 µM
GI50 (OVCAR-3 ovarian): 4.48 µM
TGI (OVCAR-3 ovarian): 40.3 µM and 43 µM
GI50 (T-47D breast): 3.03 µM
TGI (T-47D breast): 48.7 µM and 8.31 µM
GI50 (A498 renal): 1.53 µM
TGI (A498 renal): 7.54 µM and 13.9 µM
GI50 (ACHN renal): 4.25 µM
TGI (ACHN renal): > 100 µM

CCOc1ccccc1NC(=O)C(=O)C1C(=O)Nc2ccccc2S1=O (stereo not given)
TGI (RPMI-8226 leukemia): > 100 µM
TGI (MALME-3M melanoma): > 100 µM
TGI (HOP-18 NSCLC): > 100 µM
TGI (HCT-15 colon): > 100 µM
TGI (SK-MEL-28 melanoma): > 100 µM
TGI (HL-60(TB) leukemia): > 100 µM
TGI (UO-31 renal): > 100 µM
TGI (NCI-H460 lung): > 100 µM
TGI (MOLT-4 leukemia): > 100 µM
TGI (HCC-2998 colon): > 100 µM
TGI (SK-OV-3 ovarian): > 100 µM
TGI (U251 CNS): > 100 µM
TGI (SNB-78 CNS): > 100 µM
TGI (M14 melanoma): > 100 µM
TGI (RXF 393 renal): > 100 µM
TGI (A549 NSCLC): > 100 µM
TGI (LXFL 529 NSCLC): > 100 µM
TGI (NCI-H522 lung): > 100 µM
TGI (HCT-116 colon): > 100 µM
TGI (DMS 114 small cell lung): > 100 µM
TGI (K-562 leukemia): > 100 µM
TGI (DMS 273 small cell lung): > 100 µM
TGI (SF-268 CNS): > 100 µM
TGI (SK-MEL-2 melanoma): > 100 µM
TGI (CCRF-CEM leukemia): > 100 µM
TGI (786-0 renal): > 100 µM
TGI (OVCAR-3 ovarian): > 100 µM

COC(=O)C1=C(SC)SC2(C(=O)OC)C3C=C(C)C4C(N13)C42C(=O)OC (stereo not given)
TGI (SN12C renal): > 100 µM
TGI (RPMI-8226 leukemia): > 100 µM
TGI (KM20L2 colon): > 100 µM
TGI (MALME-3M melanoma): > 100 µM
TGI (HOP-62 NSCLC): > 100 µM
TGI (SF-539 CNS): > 100 µM
TGI (OVCAR-5 ovarian): > 100 µM
TGI (HCT-15 colon): > 100 µM
TGI (IGROV1 ovarian): > 100 µM
TGI (OVCAR-8 ovarian): > 100 µM
TGI (SK-MEL-28 melanoma): > 100 µM
TGI (SW-620 colon): > 100 µM
TGI (CAKI-1 renal): > 100 µM
TGI (HL-60(TB) leukemia): > 100 µM
TGI (UO-31 renal): > 100 µM
TGI (SR leukemia): > 100 µM
TGI (NCI-H460 lung): > 100 µM
TGI (MOLT-4 leukemia): > 100 µM
TGI (UACC-62 melanoma): > 100 µM
TGI (SK-MEL-5 melanoma): > 100 µM
TGI (HCC-2998 colon): > 100 µM
TGI (SK-OV-3 ovarian): > 100 µM
TGI (TK-10 renal): > 100 µM
TGI (COLO 205 colon): > 100 µM
TGI (SF-295 CNS): > 100 µM
TGI (DLD-1 colon): > 100 µM
TGI (U251 CNS): > 100 µM
TGI (SNB-19 CNS): > 100 µM
TGI (UACC-257 melanoma): > 100 µM
TGI (M14 melanoma): > 100 µM
TGI (M19-MEL melanoma): > 100 µM
TGI (RXF 393 renal): > 100 µM
TGI (LOX IMVI melanoma): > 100 µM
TGI (HT29 colon): > 100 µM
TGI (A549 NSCLC): > 100 µM
TGI (EKVX NSCLC): > 100 µM
TGI (LXFL 529 NSCLC): > 100 µM
TGI (NCI-H522 lung): > 100 µM
TGI (HCT-116 colon): > 100 µM
TGI (DMS 114 small cell lung): > 100 µM
TGI (K-562 leukemia): > 100 µM
TGI (NCI-H226 lung): > 100 µM
TGI (DMS 273 small cell lung): > 100 µM
TGI (SF-268 CNS): > 100 µM
TGI (SK-MEL-2 melanoma): > 100 µM
TGI (SNB-75 CNS): > 100 µM
TGI (NCI-H23 lung): > 100 µM
TGI (CCRF-CEM leukemia): > 100 µM
TGI (786-0 renal): > 100 µM
TGI (OVCAR-3 ovarian): > 100 µM
TGI (ACHN renal): > 100 µM

From PubChem BioAssay (NCI)
